Entries after “also recorded” stand apart in the source; their conditions may differ.
Tests used:
[1] = tested on: restless legs syndrome patients; test: Polysomnography in 12-week open label pilot trial of single evening cabergoline dose in RLS; type: in vivo
Procedure: Cabergoline in RLS, ENS, Nice, Abstract.
Efficacy was assessed by polysomnography and subjective ratings.
(§1) Following a 2-week baseline period, all patients were treated with cabergoline in an open trial for 12 weeks. Apart from levodopa, patients had to stop taking any medication known to have positive or negative effect on RLS two weeks before baseline (i.e., other dopamine agonists, benzodiazepines, opioids or other psychotropic agents). Patients who were on levodopa therapy were allowed to either stop levodopa prior to study entry or to continue, taper or discontinue levodopa during the study. To prevent well known peripheral dopaminergic side-effects such as nausea, vomiting, vertigo and arterial hypotension domperidone (not available in the United States) was comedicated initially and also tapered if possible. […] Neurological case history, examination, electrocardiogramm, chest x-ray and polysomnography were performed to ensure that selection criteria were fulfilled. A two-night PSG (including one night of adaptation) was performed to evaluate the diagnosis and inclusion/exclusion criteria regardless if patients were on or off levodopa. After a 12-week treatment period patients were studied again for one night in the sleep laboratory. Subjective ratings were obtained at baseline, week 4, week 8 and at the endpoint after 12 weeks. In addition patients were monitored by phone calls to note any adverse events and to determine whether to increase the dosage of the study drug, to decrease levodopa and to decrease domperidone. The time schedule of phone calls was variable and the frequency mostly dependent on the presence of simultaneous levodopa therapy.
Inclusion criteria. Patients were included if they fulfilled the minimal diagnostic criteria according to the International RLS Study Group. After rating clinical symptoms at baseline, patients were referred to polysomnography without any RLS specific treatment other than levodopa. Patients were included if they had more than five PLM per hour of time-in-bed (PLM index) and a sleep efficiency index (total sleep time per hour time-in-bed) of less than 85%.
Exclusion criteria. Patients with signs of any other sleep disorder on PSG, especially sleep apnea syndrome (respiratory disturbances index >5 per hour total sleep time), were excluded. Subjects receiving neuroleptic, antidepressant or other psychotropic medications or with any severe additional illness (with special consideration to pulmonary fibrosis) or drug abuse were also excluded. Patients with established or suspected hypersensitivity to ergot derivates and patients with clinical significant change in routine laboratory studies were not included. Pregnant or lactating women or women without safe contraception were not allowed to participate in this study.
Dosing. Study medication was available in tablets containing 0.5 mg, 1 mg or 2 mg Cabergoline (Cabaseril®, Pharmacia & Upjohn, Erlangen, Germany). Medication was taken 2 hours prior to bedtime. Initial therapy consisted of one 0.5 mg tablet. […] The increased dose could be decreased again if necessary. All patients were initially comedicated with domperidone 20 mg t.i.d. which could be tapered and stopped if possible. Subjects who were pretreated with levodopa were asked to decrease levodopa simultaneously if possible.
Polysomnographic studies. At baseline and at the study end after 12 weeks PSG recordings were performed for one night (11 p.m.-7 a.m.) to evaluate inclusion/exclusion criteria and to obtain primary and secondary efficacy parameters. Studies included monitoring of electroencephalogram (EEG) (C3-A2, C4-A1), electrooculogram, chin EMG, EMG of both anterior tibialis muscles and electrocardiogram (ECG). PSG methods used standard procedures such as Pollmacher and Schultz. At baseline respiration, oronasal airflow, respiration effort and oxygen saturation were monitored by standard methods. Sleep scoring was also done by methods. […]

[2] = tested on: restless legs syndrome patients; test: Safety / adverse events, tolerability, augmentation in 12-week open label trial; type: in vivo
Text: as §1, with “Apart” for “Following a 2-week baseline period, all patients were treated with cabergoline in an open trial for 12 weeks. Apart”, “therapy. Dosing. […] Medication was taken 2 hours prior to bedtime. Initial therapy consisted of one 0.5 mg tablet. […] The increased dose could be decreased again if necessary. […] Subjects who were pretreated with levodopa were asked to decrease levodopa simultaneously if possible. Physician's rating. The physician rated the severity of illness at baseline (normal to extremely ill), the global improvement (general condition very much worse to very much better) and the side effects by use of the Clinical Global Impressions (CGI). Safety. Safety of Cabergoline was assessed to the type and frequency of adverse event, clinically significant changes in laboratory data or ECG and premature discontinuation of study participation. Adverse events were classified as serious versus nonserious and characterized by intensity, relationship to drug treatment, frequency, course and therapeutic intervention.” for “therapy.”

[3] = Half-life and duration of action; type: in vivo; conditions: 'here we report'
[4] = tested on: restless legs syndrome patients; test: Safety / adverse events, tolerability, augmentation in 12-week open label trial; type: in vivo; conditions: 6 months or more after treatment, compared with L-Dopa
D2 family of receptors = conditions: cited from earlier work
D1 family of receptors = conditions: cited from earlier work
[5] = tested on: D2 and D3 molecular receptors; conditions: cited from earlier work

In the case of C=CCN1C[C@H](C(=O)N(CCCN(C)C)C(=O)NCC)C[C@@H]2c3cccc4[nH]cc(c34)C[C@H]21 [Cabergoline, 1((6-allylergolin-8β-yl) -carbony.)-1-(3-(dimethylamino)propyl)-3-ethylurea], the “increase in total sleep time” value ([1]; endpoint vs. baseline) was “more than one”, the “reduction of PLM during time in bed, PLM arousals and PLM awakenings (in words)” value ([1]; endpoint vs. baseline) was “significant reduction” and the “sleep efficiency (in words)” value ([1]; endpoint vs. baseline) was “increased”. The “sleep latency (in words)” value ([1]; endpoint vs. baseline) was “shortened”, the “total sleep time (in words)” value ([1]; endpoint vs. baseline) was “prolonged” and the “total number of PLM during time in bed (No. Of PLM)” value ([1]; week 12, cabergoline monotherapy (mean 2.1 mg, single evening dose), baseline 195.8 ± 109.1) was 26.4±40.2. For the same molecule, the “number of PLM awakenings” value ([1]; week 12, cabergoline monotherapy, baseline 9.6 ± 4.9) was 1.0±2.0, the PLM arousal index ([1]; week 12, cabergoline monotherapy, baseline 10.4 ± 7.8) was 1.0±1.7 number of PLM arousals per hou and the PLM index ([1]; week 12, cabergoline monotherapy, baseline 27.7 ± 17.1) was 3.6±5.3 number of PLM per hour time in. For the same molecule, the “Sleep Latency” value ([1]; week 12, cabergoline monotherapy, baseline 42.4 ± 49.1) was 16.3 ± 22.8 min, the PLM arousals ([1]; week 12, cabergoline monotherapy, baseline 51.7 ± 42.3) was 6.4±11.2 and the Sleep efficiency ([1]; week 12, cabergoline monotherapy, baseline 63.1 ± 10.5) was 79.1±12.5%. For the same molecule, the Total sleep time ([1]; week 12, cabergoline monotherapy, baseline 302.7 ± 50.7) was 379.4 ± 59.8 min, the “peripheral or other dopaminergic side effects” value ([2]; 4 mg cabergoline monotherapy) was “did not see peripheral or other dopaminergic side effects” and the “total adverse events probably related to study drug” value ([2]; 9 patients, 12 weeks) was 8. For the same molecule, the augmentation under cabergoline ([2]; 12-week treatment) was “lower incidence; also recorded: did not observe augmentation”, the “duration and intensity of adverse events” value ([2]; all adverse events) was “temporary and considered to be mild to moderate” and the “reversal of levodopa-evoked augmentation of RLS symptoms” value ([2]; all patients) was “reversible”. The “discontinuation of levodopa during study” value ([2]; all patients initially on levodopa) was “discontinued levodopa treatment”, the “tolerability (in words)” value ([2]; domperidone stopped in all patients) was “excellent tolerability; also recorded: good tolerability” and the “changes in laboratory data or ECG” value ([2]; in vivo) was “No significant changes”. For the same molecule, the “serious side effects / serious adverse events” value ([2]; in vivo) was “no serious side effects; also recorded: no serious adverse events”, the “withdrawal / discontinuation of patients” value ([2]; in vivo) was “no patient withdrew; also recorded: no patient discontinued” and the “patients with adverse events probably related to study drug” value ([2]; of 9 patients) was 5 patients. It also gave a diarrhea ([2]; probably related side effects) of 1, a dizziness ([2]; probably related side effects) of 2 and a headache ([2]; probably related side effects) of 2. For the same molecule, the vertigo ([2]; probably related side effects) was 2, the nausea ([2]; probably related, led to temporary dose reduction) was 1 patient and the “duration of action (may last)” value [3] was no more than 65 h. For the same molecule, the “tolerance to treatment (in words)” value [4] was “low tolerance; also recorded: lack of tolerance”, the “D2 family agonist activity (in words)” value (D2 family of receptors) was “full D2 family agonist” and the “D1 family activity (in words)” value (D1 family of receptors) was “partial D1 activity; also recorded: partial DI family activity”. The “D2 versus D3 binding (in words)” value [5] was “greater D2 over D3 binding”.

Source: US6114326A, “Use of cabergoline in the treatment of restless legs syndrome” (priority 1999, dated 2000)
